Source: US8629157B2, “Pyrrolidine compounds which modulate the CB2 receptor” (Boehringer Ingelheim International GmbH, priority 2009, dated 2014)
Read-outs that look alike come from different tables or passages of the source.

Biological target: human CB2R (Homo sapiens, UniProt P34972)
Experiment: CB2R mediated modulation of cAMP synthesis
Format: cell-based
Protocol: B. CB2R Mediated Modulation of cAMP Synthesis:
Compounds of the invention were evaluated for their CB2 agonist or inverse agonistic activity in accordance with the following experimental method.
CHO cells expressing human CB2R (Euroscreen) were plated at a density of 5000 cells per well in 384 well plates and incubated overnight at 37° C. After removing the media, the cells were treated with test compounds diluted in stimulation buffer containing 1 mM IBMX, 0.25% BSA and 10 uM Forskolin. The assay was incubated for 30 minutes at 37° C. Cells were lysed and the cAMP concentration was measured using DiscoverX-XS cAMP kit, following the manufacturer's protocol. In this setting, agonists will decrease forskolin induced production of cAMP while inverse agonists will further increase forskolin induced production of cAMP. EC50 of agonists were calculated as follows. The maximal amount of cAMP produced by forskolin compared to the level of cAMP inhibited by 1 uM CP55940 is defined as 100%. […] Data was analyzed using a four-parameter logistic model. (Model 205 of XLfit 4.0).

[1] = CHO cells expressing human CB2R, inhibition of forskolin-stimulated cAMP synthesis, mean, read-out: CB2 CAMP @ EC50 nM (mean)

Chain of human CB2R (P34972 whole entry): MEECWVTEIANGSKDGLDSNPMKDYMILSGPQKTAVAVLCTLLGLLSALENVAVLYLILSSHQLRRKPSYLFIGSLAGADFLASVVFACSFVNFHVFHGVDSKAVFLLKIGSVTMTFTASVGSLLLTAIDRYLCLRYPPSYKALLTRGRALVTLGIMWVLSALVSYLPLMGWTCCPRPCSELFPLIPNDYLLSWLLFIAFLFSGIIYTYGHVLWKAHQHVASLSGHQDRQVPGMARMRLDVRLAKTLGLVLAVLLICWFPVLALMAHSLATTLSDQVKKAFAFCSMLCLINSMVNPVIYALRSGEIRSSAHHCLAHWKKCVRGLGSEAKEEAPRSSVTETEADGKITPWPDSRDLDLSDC

Compound: CCc1sc(NC(=O)[C@@H]2C[C@@H](O)CN2CC2CCOCC2)nc1-c1ccccc1 [(2S,4R)-4-Hydroxy-1-(tetrahydro-pyran-4-ylmethyl)-pyrrolidine-2-carboxylic acid (5-ethyl-4-phenyl-thiazol-2-yl)-amide]
- EC50: 7.93 nM

Compound: CC(C)(C)c1nnc(NC(=O)[C@@H]2C[C@@H](O)CN2CC2CCOCC2)s1 [(2S,4R)-4-Hydroxy-1-(tetrahydro-pyran-4-ylmethyl)-pyrrolidine-2-carboxylic acid (5-tert-butyl-1,3,4-thiadiazol-2-yl)-amide]
- EC50: 69.8 nM

Compound: CC(C)(C)c1cc(NC(=O)[C@@H]2C[C@@H](O)CN2CC2CCOCC2)no1 [(2S,4R)-4-Hydroxy-1-(tetrahydro-pyran-4-ylmethyl)-pyrrolidine-2-carboxylic acid (5-tert-butyl-isoxazol-3-yl)-amide]
- EC50: 3.89 nM

Compound: O=C(Nc1nc(-c2ccc(Cl)cc2)cs1)[C@@H]1C[C@@H](O)CN1CC1CCOCC1 [(2S,4R)-4-Hydroxy-1-(tetrahydro-pyran-4-ylmethyl)-pyrrolidine-2-carboxylic acid [4-(4-chloro-phenyl)-thiazol-2-yl]-amide]
- EC50: 71.2 nM

Compound: CC(C)(C)c1cc(NC(=O)[C@@H]2C[C@H](O)CN2c2ncc(C(F)(F)F)cc2Cl)no1 [(2S,4S)-1-(3-Chloro-5-trifluoromethyl-pyridin-2-yl)-4-hydroxy-pyrrolidine-2-carboxylic acid (5-tert-butyl-isoxazol-3-yl)-amide]
- EC50: 1.35 nM

Compound: O=C(Nc1nc(-c2ccccc2)ns1)[C@@H]1C[C@H](O)CN1c1ccc(C(F)(F)F)cn1 [(2S,4S)-4-Hydroxy-1-(5-trifluoromethyl-pyridin-2-yl)-pyrrolidine-2-carboxylic acid (3-phenyl-1,2,4-thiadiazol-5-yl)-amide]
- EC50: 18.4 nM

Compound: CC(C)(C)c1cc(NC(=O)[C@@H]2C[C@H](O)CN2c2ccc(C(F)(F)F)cn2)no1 [(2S,4S)-4-Hydroxy-1-(5-trifluoromethyl-pyridin-2-yl)-pyrrolidine-2-carboxylic acid (5-tert-butyl-isoxazol-3-yl)-amide]
- EC50: 27.9 nM

Compound: CC(C)(C)c1cc(NC(=O)[C@@H]2C[C@H](O)CN2C2CCOCC2)on1 [(2S,4S)-4-Hydroxy-1-(tetrahydro-pyran-4-yl)-pyrrolidine-2-carboxylic acid (3-tert-butyl-isoxazol-5-yl)-amide]
- EC50: 59 nM

Compound: CC(C)(C)c1nc(NC(=O)[C@@H]2C[C@H](O)CN2CC2CCOCC2)sc1C#N [(2S,4S)-4-Hydroxy-1-(tetrahydro-pyran-4-ylmethyl)-pyrrolidine-2-carboxylic acid (4-tert-butyl-5-cyano-thiazol-2-yl)-amide]
- EC50: 380 nM

Compound: CC(C)N1C[C@@H](O)C[C@H]1C(=O)Nc1cc(C(C)(C)C)no1 [(2S,4S)-4-Hydroxy-1-isopropyl-pyrrolidine-2-carboxylic acid (3-tert-butyl-isoxazol-5-yl)-amide]
- EC50: 421 nM

Compound: O=C(Nc1ccc(C(F)(F)F)cn1)[C@H]1CCCN1c1ccc(C(F)(F)F)cc1 [(R)-1-(4-Trifluoromethyl-phenyl)-pyrrolidine-2-carboxylic acid (5-trifluoromethyl-pyridin-2-yl)-amide]
- EC50: 70.7 nM

Compound: CC(C)(C)c1nnc(NC(=O)[C@@H]2CCCN2C(=O)N2CCS(=O)(=O)CC2)s1 [(S)-1-(1,1-Dioxo-1l^6-thiomorpholine-4-carbonyl)-pyrrolidine-2-carboxylic acid (5-tert-butyl-1,3,4-thiadiazol-2-yl)-amide]
- EC50: 436 nM

Compound: CC(C)(C)c1cc(NC(=O)[C@@H]2CCC(=O)N2c2cccc(F)c2F)on1 [(S)-1-(2,3-Difluoro-phenyl)-5-oxo-pyrrolidine-2-carboxylic acid (3-tert-butyl-isoxazol-5-yl)-amide]
- EC50: 261 nM

Compound: CCC(C)CN1CCC[C@H]1C(=O)Nc1cc(C(C)(C)C)no1 (stereo partly drawn) [(S)-1-(2-Methyl-butyl)-pyrrolidine-2-carboxylic acid (3-tert-butyl-isoxazol-5-yl)-amide]
- EC50: 0.116 nM

Compound: CC(C)(C)c1cc(NC(=O)[C@@H]2CCC(=O)N2c2ccc(Cl)c(Cl)c2)on1 [(S)-1-(3,4-Dichloro-phenyl)-5-oxo-pyrrolidine-2-carboxylic acid (3-tert-butyl-isoxazol-5-yl)-amide]
- EC50: 16.1 nM

Compound: CC(C)(C)c1cc(NC(=O)[C@@H]2CCC(=O)N2c2ccc(Cl)c(Cl)c2)no1 [(S)-1-(3,4-Dichloro-phenyl)-5-oxo-pyrrolidine-2-carboxylic acid (5-tert-butyl-isoxazol-3-yl)-amide]
- EC50: 49.7 nM

Compound: CC(C)(C)c1cc(NC(=O)[C@@H]2CCCN2Cc2ccc(F)c(F)c2)on1 [(S)-1-(3,4-Difluoro-benzyl)-pyrrolidine-2-carboxylic acid (3-tert-butyl-isoxazol-5-yl)-amide]
- EC50: 0.208 nM

Compound: CC(C)(C)c1cc(NC(=O)[C@@H]2CCC(=O)N2c2ccc(F)c(F)c2)on1 [(S)-1-(3,4-Difluoro-phenyl)-5-oxo-pyrrolidine-2-carboxylic acid (3-tert-butyl-isoxazol-5-yl)-amide]
- EC50: 16 nM

Compound: CC(C)(C)c1cc(NC(=O)[C@@H]2CCC(=O)N2c2ccc(F)c(F)c2)no1 [(S)-1-(3,4-Difluoro-phenyl)-5-oxo-pyrrolidine-2-carboxylic acid (5-tert-butyl-isoxazol-3-yl)-amide]
- EC50: 64.2 nM

Compound: CC(C)(C)c1cc(NC(=O)[C@@H]2CCCN2c2ncc(Cl)cc2Cl)on1 [(S)-1-(3,5-Dichloro-pyridin-2-yl)-pyrrolidine-2-carboxylic acid (3-tert-butyl-isoxazol-5-yl)-amide]
- EC50: 0.135 nM

Compound: CC(C)(C)c1cc(NC(=O)[C@@H]2CCC(=O)N2c2ccc(F)c(Cl)c2)on1 [(S)-1-(3-Chloro-4-fluoro-phenyl)-5-oxo-pyrrolidine-2-carboxylic acid (3-tert-butyl-isoxazol-5-yl)-amide]
- EC50: 26.7 nM

Compound: CC(C)(C)c1cc(NC(=O)[C@@H]2CCC(=O)N2c2ccc(F)c(Cl)c2)no1 [(S)-1-(3-Chloro-4-fluoro-phenyl)-5-oxo-pyrrolidine-2-carboxylic acid (5-tert-butyl-isoxazol-3-yl)-amide]
- EC50: 59.3 nM

Compound: CC(C)(C)c1cc(NC(=O)[C@@H]2CC(=O)CN2c2ncc(C(F)(F)F)cc2Cl)no1 [(S)-1-(3-Chloro-5-trifluoromethyl-pyridin-2-yl)-4-oxo-pyrrolidine-2-carboxylic acid (5-tert-butyl-isoxazol-3-yl)-amide]
- EC50: 40.2 nM

Compound: CC(C)(C)c1cc(NC(=O)[C@@H]2CCCN2c2ncc(C(F)(F)F)cc2Cl)on1 [(S)-1-(3-Chloro-5-trifluoromethyl-pyridin-2-yl)-pyrrolidine-2-carboxylic acid (3-tert-butyl-isoxazol-5-yl)-amide]
- EC50: 0.055 nM

Compound: CC(C)(C)c1csc(NC(=O)[C@@H]2CCCN2c2ncc(C(F)(F)F)cc2Cl)n1 [(S)-1-(3-Chloro-5-trifluoromethyl-pyridin-2-yl)-pyrrolidine-2-carboxylic acid (4-tert-butyl-thiazol-2-yl)-amide]
- EC50: 1.95 nM

Compound: CC(C)(C)c1cc(NC(=O)[C@@H]2CCCN2c2ncc(C(F)(F)F)cc2Cl)no1 [(S)-1-(3-Chloro-5-trifluoromethyl-pyridin-2-yl)-pyrrolidine-2-carboxylic acid (5-tert-butyl-isoxazol-3-yl)-amide]
- EC50: 0.08 nM

Compound: CC(C)(C)c1cc(NC(=O)[C@@H]2CCC(=O)N2c2cccc(Cl)c2)on1 [(S)-1-(3-Chloro-phenyl)-5-oxo-pyrrolidine-2-carboxylic acid (3-tert-butyl-isoxazol-5-yl)-amide]
- EC50: 203 nM

Compound: CC(C)(C)c1cc(NC(=O)[C@@H]2CCC(=O)N2c2cccc(Cl)c2)no1 [(S)-1-(3-Chloro-phenyl)-5-oxo-pyrrolidine-2-carboxylic acid (5-tert-butyl-isoxazol-3-yl)-amide]
- EC50 [1]: 296 nM

Compound: COc1ccc(N2C(=O)CC[C@H]2C(=O)Nc2cc(C(C)(C)C)no2)cc1F [(S)-1-(3-Fluoro-4-methoxy-phenyl)-5-oxo-pyrrolidine-2-carboxylic acid (3-tert-butyl-isoxazol-5-yl)-amide]
- EC50: 314 nM

Compound: CC(C)(C)c1cc(NC(=O)[C@@H]2CCC(=O)N2c2ncc(C(F)(F)F)cc2F)on1 [(S)-1-(3-Fluoro-5-trifluoromethyl-pyridin-2-yl)-5-oxo-pyrrolidine-2-carboxylic acid (3-tert-butyl-isoxazol-5-yl)-amide]
- EC50: 5 nM

Compound: CC(C)(C)c1cc(NC(=O)[C@@H]2CCC(=O)N2c2cccc(F)c2)on1 [(S)-1-(3-Fluoro-phenyl)-5-oxo-pyrrolidine-2-carboxylic acid (3-tert-butyl-isoxazol-5-yl)-amide]
- EC50: 357 nM

Compound: CC(C)(C)c1cc(NC(=O)[C@@H]2CCCN2CCCO)on1 [(S)-1-(3-Hydroxy-propyl)-pyrrolidine-2-carboxylic acid (3-tert-butyl-isoxazol-5-yl)-amide]
- EC50: 28.6 nM

Compound: CC(C)(C)c1nnc(NC(=O)[C@@H]2CCCN2CCCO)s1 [(S)-1-(3-Hydroxy-propyl)-pyrrolidine-2-carboxylic acid (5-tert-butyl-1,3,4-thiadiazol-2-yl)-amide]
- EC50: 320 nM

Compound: O=C(Nc1nc(-c2ccccc2)ns1)[C@@H]1CCC(=O)N1c1ncc(C(F)(F)F)cc1Cl [(S)-1-(3-chloro-5-trifluoromethyl-pyridin-2-yl)-5-oxo-pyrrolidine-2-carboxylic acid (3-phenyl-1,2,4-thiadiazol-5-yl)-amide]
- EC50 [1]: 0.549 nM

Compound: CC(C)(C)c1cc(NC(=O)[C@@H]2CCC(=O)N2c2ncc(C(F)(F)F)cc2Cl)no1 [(S)-1-(3-chloro-5-trifluoromethyl-pyridin-2-yl)-5-oxo-pyrrolidine-2-carboxylic acid (5-tert-butyl-isoxazol-3-yl)-amide]
- EC50: 6.5 nM
